{"source": "patent US20040053989A1", "about": "“Dithiolthione compounds for the treatment of neurological disorders and for memory enhancement” (Patrick Prendergast, priority 1999, published 2004)", "key": {"[1]": {"assay": "H2O2-dependent oxidation of 3,3′-diaminobenzidine (DAB) by lesions in AD brain tissue sections after chelator treatment", "set-up": "species or system human", "details": "prior treatment of AD brain tissue sections", "excerpt": "AD is associated with abnormalities of iron metabolism including increased levels of free iron as well as altered levels of iron transport and storage proteins. […] In addition to the NFT and Aβ deposits, redox active metals can be identified in the cytoplasm by the same DAB reaction. […] Although in situ histochemical techniques lack the sensitivity to detect copper, copper (as well as iron) could contribute to the redox activity. The relative effectiveness of copper- and iron-selective chelating agents was used to remove the lesion-dependent redox activity, which provided evidence for both copper- and iron-mediated redox activity in AD. […] Also, DAB oxidation was inhibited by chelation of metals with […]"}, "[2]": {"tested_on": "T. cruzi", "assay": "In vitro anti-protozoal activity, T. cruzi", "type": "cell-based"}, "[3]": {"tested_on": "P. falciparum 3D7", "method": "For in-vitro antimalarial testings, micro-titer plates were used. The concentration of drugs was prepared as pMol/well according to WHO standard procedures (WHO, 1990). The test compound was dissolved in 15% DMSO in sterile RPMI 1640.\nThe micro-titer plates were predosed with various concentration of the test compound. 50 μL of parasitised erythrocyte suspension in RPMI-1640 (0.2 ml erythrocyte +0.3 ml serum +4-5 ml RPMI-1640) were dispensed in microtiter wells containing various concentrations of drug. Triplicate readings were made for each concentration.\nThe testing was carried out according to the procedure of Desjardins et al. 1979. After 30 hr culture at 37 degrees C., the same microtiter plates from schizont inhibition assays with another triplicate wells were pulsed with ^3H-hypoxanthine for overnight. The cell suspensions were washed twice on millipore glass fiber filter with Millipore filter apparatus. The filter discs were counted for DPM by Beckman LS6000-scintillation counter. The activity of the drug was measured by plotting DPM against concentration of drug."}, "[4]": {"details": "sections treated 2 hrs or overnight"}, "[5]": {"tested_on": "T.b.rhodesiense STIB900", "assay": "In vitro anti-protozoal activity, T.b.rhodesiense STIB900", "type": "cell-based"}, "[6]": {"tested_on": "L. donovani", "assay": "In vitro anti-protozoal activity, L. donovani", "type": "cell-based"}, "[7]": {"tested_on": "neurons and clonal cell lines", "assay": "Attenuation of amyloid-β toxicity", "type": "cell-based", "details": "for attenuation of amyloid-β toxicity, dose dependence: pre-incubated with amyloid-β", "excerpt": "In vitro, amyloid-β is toxic to neurons and clonal cell lines."}, "[8]": {"tested_on": "Primary fibroblast cultures", "assay": "H2O2 toxicity in primary fibroblast cultures, murine model for oxidative stress (MTT)", "type": "cell-based, mice", "details": "H2O2 150 μM, Oltipraz 25 μM", "method": "(§1) Primary fibroblast cultures were prepared from normal mice (non Tg), mice transfected to produce human wild type presenilin 1 (WT Tg) or mice transfected to produce mutant human presenilin 1 (Mut Tg). All mice are derived from an identical genetic background. […] 50U/mL of catalase was used as a benchmark antioxidant against H2O2 toxicity. Cell viability was determined with the MTT reduction assay. […] Cell viability was determined with the MTT assay."}, "[9]": {"details": "doses of oltipraz effective at chelating in situ or abolishing amyloid-β toxicity; preliminary data"}, "[10]": {"tested_on": "Primary cortical neuron cultures", "details": "Oltipraz 20 μM, Aβ1-42 25 μM, 5 days, MTT; p<0.05, ANOVA", "method": "Primary cortical neuron cultures were established from E14 mice. […] Cultures were incubated for 5 days (37° C.) and then cell viability was determined using the MTT reduction assay. Cultures were also monitored for morphological changes by phase contrast microscopy. The MTT assay was performed by adding water soluble MTT to the culture medium at 0.5 mg/mL and incubating for 30 min. […] The culture medium was removed and the MTT solubilized in DMSO. Aliquots of solubilized MTT were read on a spectrophotometric plate reader at 570 nm."}, "[11]": {"tested_on": "Mut Tg fibroblasts", "details": "Oltipraz 10, 25 and 50 μM; fibroblasts treated with toxic levels of BSO", "method": "as §1"}}, "note": "Entries after “also recorded” stand apart in the source; their conditions may differ. Read-outs that look alike come from different tables or passages of the source.", "data": [{"smiles": "O=C(O)CN(CCN(CC(=O)O)CC(=O)O)CCN(CC(=O)O)CC(=O)O", "note": "[DTPA, detapac]", "values": [{"measurement": "inhibition of lesion-associated DAB oxidation", "setting": "[1]; 1 mM chelator", "value": "inhibited more than half"}, {"measurement": "inhibition of lesion-associated DAB oxidation", "setting": "[1]; 10 mM chelator", "value": "completely abolished; also recorded: nearly all"}, {"measurement": "inhibition of lesion-associated DAB oxidation", "setting": "[1]; 100 mM chelator", "value": "abolished all"}]}, {"smiles": "Cc1c(-c2cnccn2)ssc1=S", "note": "[Oltipraz, oltipraz]", "values": [{"measurement": "% Inhibition", "setting": "[2]; concentration 1", "value": 4.3, "unit": "%"}, {"measurement": "% Inhibition", "setting": "[2]; concentration 3", "value": 38.6, "unit": "%"}, {"measurement": "% Inhibition", "setting": "[2]; concentration 10", "value": 54.6, "unit": "%"}, {"measurement": "% Inhibition", "setting": "[2]; concentration 30", "value": 99.7, "unit": "%"}, {"measurement": "ED50 column, second value in parentheses (not explained)", "setting": "[2]; line below the ED50", "value": "(23.8) μg/ml"}, {"measurement": "% Inhibition", "setting": "[3]; concentration 1", "value": 0, "unit": "%"}, {"measurement": "% Inhibition", "setting": "[3]; concentration 3", "value": 4.4, "unit": "%"}, {"measurement": "% Inhibition", "setting": "[3]; concentration 10", "value": 96.5, "unit": "%"}, {"measurement": "% Inhibition", "setting": "[3]; concentration 30", "value": 100, "unit": "%"}, {"measurement": "iron removal compared with DFX", "setting": "[4]", "value": "not as effective as DFX"}, {"measurement": "% Inhibition", "setting": "[5]; concentration 10", "value": 0, "unit": "%"}, {"measurement": "% Inhibition", "setting": "[5]; concentration 30", "value": 42.5, "unit": "%"}, {"measurement": "% Inhibition", "setting": "[6]; concentration 10", "value": 0, "unit": "%"}, {"measurement": "% Inhibition", "setting": "[6]; concentration 30", "value": 3.2, "unit": "%"}, {"measurement": "attenuation of the neurotoxicity of amyloid-β", "setting": "[7]", "value": "significantly attenuate"}, {"measurement": "attenuation of amyloid-β toxicity, dose dependence", "setting": "[7]", "value": "reduced in a dose-dependent manner similar to that of deferoxamine"}, {"measurement": "attenuation of amyloid-β toxicity, dose dependence", "setting": "[7]; listed as oltipraz", "value": "attenuate its toxicity in a dose-dependent manner similar to that of deferoxamine"}, {"measurement": "cell survival in brain tissue sections", "setting": "[7]; shown in a figure", "value": "increase cell survival"}, {"measurement": "protective effect relative to that achieved with 50U/mL catalase", "setting": "[8]", "value": "about two thirds"}, {"measurement": "protective effect against H2O2 toxicity", "setting": "[8]; fibroblasts from Mut Tg mice (mutant human presenilin 1)", "value": "not in fibroblasts from Mut Tg mice"}, {"measurement": "protective effect against H2O2 toxicity", "setting": "[8]; fibroblasts from WT Tg mice (human wild type presenilin 1)", "value": "significant protective effect"}, {"measurement": "protective effect against H2O2 toxicity", "setting": "[8]; fibroblasts from non Tg mice", "value": "significant protective effect"}, {"measurement": "neurotoxicity in vitro", "setting": "[9]", "value": "little/no neurotoxicity"}, {"measurement": "cell viability compared to Aβ1-42 alone", "setting": "[10]", "value": "small increase in cell viability"}, {"measurement": "cell viability restored", "setting": "[11]", "value": 100, "unit": "%"}]}]}
